Read-outs that look alike come from different tables or passages of the source.
Assays:
[1] = Comparative surface tension of peptides in water for injection; type: physicochemical; details: 10 mg/ml in WFI; for Effect of reduced surface tension (%): baseline WFI; for Water surface tension (dyne/cm): baseline WFI 52
[2] = Emulsification of cottonseed oil and water for injection; type: physicochemical; details: 16.6 weight % cottonseed oil, 74.2 weight % WFI, 9.2 weight % peptide, room temperature
Description: Based on its amphiphilic properties, veldoreotide acetate was evaluated by means of emulsion formulation. […] Thus, veldoreotide acetate may be considered a w/o ionic surfactant or hydrotrope with a hydrophilic lipophilic balance (HLB) of 6.
The samples were mixed using 25G syringe and vortexed at room temperature.
Veldoreotide was formulated as a water in oil emulsion using 80% (wt %) cottonseed oil, 20% (wt %) water for injection (WFI) and 1% (wt %) veldoreotide acetate. Specifically, 10 mg of veldoreotide acetate was dissolved in 200 uL WFI in a 5 mL glass vial, 800 mg of cottonseed oil was added and the resulting mixture was stirred under magnetic stirring at room temperature for 15 minutes at 1000 rpm. The emulsion was then viewed under the light microscope and stored under refrigeration. The resulting emulsion was stable and found to be injectable via 27G needle.

[3] = cited from earlier work
[4] = Density, pH and surface tension of solutions (capillary method); type: physicochemical
Description: Tween 80 was used as a control surfactant for comparison. Densities were measured on 1 mL fixed volume samples. […] The effect of veldoreotide acetate on the pH of double distilled water (DDW) was the same at all veldoreotide acetate concentrations. The pH of DDW of 5.0 was reduced to pH 4.5. The effect of veldoreotide acetate on the density of DDW (starting density of DDW was 1.003 g/ml) was concentration dependent from 1.4 mg/ml to 21.5 mg/ml with density ranging from 0.986 to 0.998 g/ml respectively. However, at veldoreotide acetate concentrations of 45 and 102 mg/ml the density was increased above the starting density of DDW. […] The effect of veldoreotide acetate on the surface tension of DDW (starting surface tension was 64.9 dyne/cm) was consistent with veldoreotide acetate behaving as a peptide amphiphile (surfactant). The surface tension of DDW was reduced by veldoreotide acetate at maximum from 64.9 to 45 dyne/cm. In order to elucidate the meaning of this effect, Tween 80 was used as a reference surfactant. Other surfactants include Polexamer 188. The reduction of surface tension induced by Tween 80 was in the range of 40% (from 64.9 dyne/cm to about 39 dyne/cm), in comparison to veldoreotide acetate of 30% (from 64.9 dyne/cm to about 45 dyne/cm). Note that, under these experimental conditions; the effect of Tween 80 indicated a concentration-effect relationship. Whereas, the effect of veldoreotide acetate on the reduction of surface tension was at the same range for all concentrations tested.
The data of table 4 show the surface activity of highly concentrated COR005 acetate (200 mg/ml), with or without additives in WFI, which emulates the preparation conditions of the primary emulsion of the microspheres. The results of Test 1 and 2 (Table 4) show the effect of COR005 acetate on the surface tension of water. When COR005 acetate is dissolved in water the surface tension is reduced by about 36%, from 68.5 dyne/cm for the water alone to 44 dyne/cm for the solution of water with CR005 acetate at 200 mg/ml.

SMILES	Effect of reduced surface tension (%) [1] [%]	Water surface tension (dyne/cm) [1] [dyne/cm]	emulsification [2]	surface area ([3]; microspheres prepared from PLGA and octreotide acetate with 0 glucose (Biomaterials, 2004, 25, 1919-1927)) [m^2/g]	surface area ([3]; microspheres prepared from PLGA and octreotide acetate with 0.2% of glucose (Biomaterials, 2004)) [m^2/g]	surface area ([3]; microspheres prepared from PLGA and octreotide acetate with 1% of glucose (Biomaterials, 2004)) [m^2/g]	% change in surface tension compared to baseline ([4]; 7 mg/ml in DDW, 25° C.) [%]	Density (g/ml) Weighted 1 ml ([4]; 7 mg/ml in DDW, 25° C.) [g/mL]	Surface tension (dyne/cm) capillary method ([4]; 7 mg/ml in DDW, 25° C.) [dyne/cm]	% change in surface tension compared to baseline ([4]; 14 mg/ml in DDW, 25° C.) [%]	Density (g/ml) Weighted 1 ml ([4]; 14 mg/ml in DDW, 25° C.) [g/mL]	Surface tension (dyne/cm) capillary method ([4]; 14 mg/ml in DDW, 25° C.) [dyne/cm]	% change in surface tension compared to baseline ([4]; 28 mg/ml in DDW, 25° C.) [%]	Density (g/ml) Weighted 1 ml ([4]; 28 mg/ml in DDW, 25° C.) [g/mL]	Surface tension (dyne/cm) capillary method ([4]; 28 mg/ml in DDW, 25° C.) [dyne/cm]	surface tension of DDW solution ([4]; DDW pH 5.0, 25° C., baseline 64.9 dyne/cm (text summary, concentration not specified))	reduction of surface tension of water ([4]; DDW, 25° C., baseline 64.9 dyne/cm) [%]
CC(C)C[C@H](NC(=O)[C@@H](COC(C)(C)C)NC(=O)[C@H](Cc1ccc(O)cc1)NC(=O)[C@H](CO)NC(=O)[C@H](Cc1c[nH]c2ccccc12)NC(=O)[C@H](Cc1cnc[nH]1)NC(=O)[C@@H]1CCC(=O)N1)C(=O)N[C@@H](CCCNC(=N)N)C(=O)N1CCC[C@H]1C(=O)NNC(N)=O [Goserelin]	−37	33	least potential for emulsion formation	–	–	–	–	–	–	–	–	–	–	–	–	–	–
C[C@@H](O)[C@@H]1NC(=O)[C@H](CCCCN)NC(=O)[C@@H](Cc2c[nH]c3ccccc23)NC(=O)[C@H](Cc2ccccc2)NC(=O)[C@@H](NC(=O)[C@H](N)Cc2ccccc2)CSSC[C@@H](C(=O)N[C@H](CO)[C@@H](C)O)NC1=O [Octreotide]	−27	38	weak emulsification efficiency	4.4	4.7	4.9	–	–	–	–	–	–	–	–	–	–	–
CCCCCCCC/C=C\CCCCCCCC(=O)OCCOCC(OCCO)C1OCC(OCCO)C1OCCO (centres unmarked) [Tween 80, reference compound]	–	–	–	–	–	–	−39	0.9945	39.6	−39	0.988	39.35	−40	0.975	38.8	about 39 dyne/cm	~40

— US10398751B2, “Pharmaceutical compositions of water soluble peptides with poor solubility in isotonic conditions and methods for their use” (STRONGBRIDGE IRELAND LIMITED, priority 2016, dated 2019)
